Assay [1] addresses T1, human ERα (Homo sapiens, UniProt P03372).
T1 sequence (P03372 1-595): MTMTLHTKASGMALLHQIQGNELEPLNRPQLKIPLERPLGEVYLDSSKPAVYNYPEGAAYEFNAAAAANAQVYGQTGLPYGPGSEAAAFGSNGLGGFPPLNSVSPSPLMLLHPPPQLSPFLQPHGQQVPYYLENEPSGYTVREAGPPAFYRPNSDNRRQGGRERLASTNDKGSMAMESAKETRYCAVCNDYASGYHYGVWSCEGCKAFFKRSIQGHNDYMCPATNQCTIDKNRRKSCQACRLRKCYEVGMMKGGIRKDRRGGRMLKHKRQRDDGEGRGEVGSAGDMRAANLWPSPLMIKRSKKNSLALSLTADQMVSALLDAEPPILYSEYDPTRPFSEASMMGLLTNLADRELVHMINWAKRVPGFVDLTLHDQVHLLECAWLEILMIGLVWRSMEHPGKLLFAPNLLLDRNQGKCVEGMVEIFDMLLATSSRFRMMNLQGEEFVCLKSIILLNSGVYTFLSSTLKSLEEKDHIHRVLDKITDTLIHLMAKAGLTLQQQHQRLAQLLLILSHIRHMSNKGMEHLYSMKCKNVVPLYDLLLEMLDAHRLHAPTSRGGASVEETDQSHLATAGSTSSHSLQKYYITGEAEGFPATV
Kind of assay: NF-κB luciferase reporter (ER/NF-KB-luc) in Ad5-wt-hERα infected HAECT-1 cells. To be noted: for IC50: ER/NF-KB-luc IC50, Ad5-wt-ER infected HAECT-1 cells, IL-1β; for Emax: HAECT1, read-out: ER/NF-KB-luc % E2, efficacy relative to the maximal inhibition observed with E2. On the technique in general: Reporter assays use an easily measured gene product as a stand-in for the process of interest.

Assay [2] addresses T1, human ERα. The assay is described as follows: Creatine kinase expression (ER/CK) in Ad5-wt-hERα infected HAECT-1 cells. To be noted: for ER/CK % E2: efficacy relative to the maximal stimulation observed with E2.

A word on the IC50: it is the concentration that gives 50% inhibition. A lower IC50 goes with higher potency. Broadly, the EC50 is the concentration at which the effect is half-maximal. Higher therefore signals a less potent agent.

The structures appear in SMILES notation. “And” between values parts separate entries of the source, which are not always exact repeats. Equal values may be shown once.

Turning to `C=CCn1nc2c(C(F)(F)F)cccc2c1-c1ccc(O)cc1O` [Example 75, 4-[2-allyl-7-(trifluoromethyl)-2H-indazol-3-yl]-1,3-benzenediol], on human ERα [1], it took 63 nM to reach half-maximal inhibition (IC50) and the Emax worked out at 83%. Further, at human ERα [2], the EC50 came out at 982 nM and the “ER/CK % E2” value is given as 48 % E2.
In the case of `CCCn1nc(-c2ccc(O)cc2C)c2cccc(C(F)(F)F)c21` [Example 76, 3-methyl-4-[1-propyl-7-(trifluoromethyl)-1H-indazol-3-yl]phenol], on human ERα [1], inhibition was half-maximal at 22 nM (IC50) and the Emax came to 86%. Also, on human ERα [2], the concentration giving a half-maximal response (EC50) was determined as 57 nM and the “ER/CK % E2” value stood at 20 % E2.
Taken in the same sequence, the figures for `Cc1cc(O)ccc1-c1nn(C(C)C)c2c(Cl)cccc12` [Example 77, 4-(7-chloro-1-isopropyl-1H-indazol-3-yl)-3-methylphenol] were 41 nM, 87%, 302 nM and 29 % E2.
Taken in the same sequence, the figures for `C=CCn1nc2c(Cl)cccc2c1-c1ccc(O)cc1C` [Example 78, 4-(2-allyl-7-chloro-2H-indazol-3-yl)-3-methylphenol] were 590 nM, 90%, 2200 nM and 32 % E2.
For the compound `CCCn1nc2c(Cl)cccc2c1-c1ccc(O)cc1C` [Example 79, 4-(7-chloro-2-propyl-2H-indazol-3-yl)-3-methylphenol], on human ERα [1], the IC50 was 92 nM and the Emax stood at 93%. Moreover, on human ERα [2], it took 734 nM to reach a half-maximal effect (EC50) and the “ER/CK % E2” value turned out to be 52 % E2.
For the compound `Cc1cc(O)ccc1-c1c2cccc(Cl)c2nn1C(C)C` [Example 81, 4-(7-chloro-2-isopropyl-2H-indazol-3-yl)-3-methylphenol], at human ERα [1], the 50% inhibitory concentration (IC50) stood at 33 nM and the Emax stood at 92%. Further, on human ERα [2], the EC50 came to 308 nM and the “ER/CK % E2” value was 62 % E2.
Taken in the same sequence, the figures for `CCCn1nc(-c2ccc(O)cc2C)c2cccc(Cl)c21` [Example 86, 4-(7-chloro-1-propyl-1H-indazole-3-yl)-3-methylphenol] were 255 nM, 83%, 413 nM and 27 % E2.
With `CC(C)n1nc(-c2ccc(O)cc2O)c2cccc(F)c21` [Example 87, 4-(7-fluoro-1-isopropyl-1H-indazole-3-yl)benzene-1,3-diol], at human ERα [1], the 50% inhibitory concentration (IC50) came out at 347 nM and the Emax is 77%. On human ERα [2], the response was half-maximal at 188 nM (EC50) and the “ER/CK % E2” value was 24 % E2.
For `Cc1cc(O)ccc1-c1nn(C(C)C)c2c(F)cccc12` [Example 91, 4-(7-fluoro-1-isopropyl-1H-indazole-3-yl)-3-methylphenol] the same measures were 80 nM, 82%, 787 nM and 24 % E2.
Taken in the same sequence, the figures for `CCCn1nc2c(-c3ccccc3)cccc2c1-c1ccc(O)cc1` [Example 110, 4-(7-phenyl-2-propyl-2H-indazol-3-yl)phenol] were 2 nM, 89%, 12 nM and 82 % E2.
Turning to `CCC(=O)Oc1ccc(-c2nn(C3CCCC3)c3c(F)cccc23)cc1` [Example 115, 4-(1-cyclopentyl-7-fluoro-1H-indazol-3-yl)phenyl propionate], at human ERα [1], the IC50 was 27 nM and 246 nM; the Emax turned out to be 82%. The “ER/NF-KB-luc % E2” value on human ERα [1] (efficacy relative to the maximal inhibition observed with E2) came to 71 % E2. For the same compound, on human ERα [2], the midpoint of the response, the EC50, lay at 166 nM and the “ER/CK % E2” value was determined as 91 % E2.
Regarding `CC(C)(C)OC(=O)NCC(=O)NCC(=O)Oc1ccc(-c2nn(C3CCCC3)c3c(F)cccc23)cc1` [Example 116, 4-(1-cyclopentyl-7-fluoro-1H-indazol-3-yl)phenyl N-(tert-butoxycarbonyl)glycylglycinate], on human ERα [1], the IC50 came to 140 nM and the Emax came to 63%. In addition, at human ERα [2], the response was half-maximal at 229 nM (EC50) and the “ER/CK % E2” value is 25 % E2.
Taken in the same sequence, the figures for `CC(C)(C)OC(=O)N[C@@H](CCC(=O)Oc1ccc(-c2nn(C3CCCC3)c3c(F)cccc23)cc1)C(=O)OC(C)(C)C` [Example 117, 1-tert-butyl 5-[4-(1-cyclopentyl-7-fluoro-1H-indazol-3-yl)phenyl] N-(tert-butoxycarbonyl)-L-glutamate] were 150 nM, 52%, 169 nM and 22 % E2.
For the compound `Oc1ccc(-c2n[nH]c3ccccc23)cc1` [Example 130, 4-(H-indazol-3-yl)phenol], on human ERα [1], the IC50 was 62 nM and the Emax stood at 97%. On human ERα [2], the EC50 is 205 nM and the “ER/CK % E2” value is recorded as 54 % E2.
Taken in the same sequence, the figures for `Oc1ccc(-c2n[nH]c3cc(Cl)ccc23)cc1` [Example 134, 4-(6-chloro-1H-indazol-3-yl)phenol] were 897 nM, 76%, 1930 nM and 36 % E2.
Taken in the same sequence, the figures for `OCCn1nc(-c2ccc(O)cc2)c2ccccc21` [Example 158, 4-[1-(2-hydroxyethyl)-1H-indazol-3-yl]phenol] were 515 nM, 106%, 1120 nM and 59 % E2.
Taken in the same sequence, the figures for `Cn1nc(-c2ccc(O)cc2O)c2cccc(C(F)(F)F)c21` [Example 167, 4-[1-methyl-7-(trifluoromethyl)-1H-indazol-3-yl]benzene-1,3-diol] were 311 nM, 83%, 588 nM and 29 % E2.
Turning to `Cn1nc(-c2ccc(O)cc2)c2cc(F)ccc21` [Example 168, 4-(5-fluoro-1-methyl-1H-indazol-3-yl)phenol], on human ERα [1], the IC50 is 347 nM and the Emax turned out to be 95%. Also, on human ERα [2], the EC50 was 1370 nM and the “ER/CK % E2” value was determined as 86 % E2.
For `Cn1nc(-c2ccc(O)cc2O)c2cccc(Cl)c21` [Example 170, 4-(7-chloro-1-methyl-1H-indazol-3-yl)benzene-1,3-diol] the same measures were 276 nM, 77%, 827 nM and 28 % E2.
For `Cn1nc(-c2ccc(O)cc2)c2cc(C(F)(F)F)ccc21` [Example 171, 4-[1-methyl-5-(trifluoromethyl)-1H-indazol-3-yl]phenol] the same measures were 582 nM, 95%, 2380 nM and 42 % E2.
For the compound `Cn1nc(-c2ccc(O)cc2O)c2cc(F)ccc21` [Example 172, 4-(5-fluoro-1-methyl-1H-indazol-3-yl)benzene-1,3-di], on human ERα [1], the IC50 is 349 nM and the Emax worked out at 95%. Besides, on human ERα [2], the EC50 came out at 1320 nM and the “ER/CK % E2” value was 92 % E2.
For `Cn1nc(-c2ccc(O)c(O)c2)c2cccc(C(F)(F)F)c21` [Example 176, 4-[1-methyl-7-(trifluoromethyl)-1H-indazol-3-yl]benzene-1,2-diol] the same measures were 587 nM, 111%, 1040 nM and 70 % E2.
Taken in the same sequence, the figures for `Oc1ccc(-c2nn(Cc3ccccc3)c3ccc(C(F)(F)F)cc23)c(O)c1` [Example 182, 4-[1-benzyl-5-(trifluoromethyl)-1H-indazol-3-yl]benzene-1,3-diol] were 443 nM, 121%, 2930 nM and 71 % E2.
For `Oc1ccc(-c2nn(Cc3ccccc3)c3ccccc23)c(O)c1` [Example 183, 4-(1-benzyl-1H-indazol-3-yl)benzene-1,3-diol] the same measures were 431 nM, 135%, 2930 nM and 48 % E2.
Turning to `OCCn1nc(-c2ccc(O)cc2)c2cccc(F)c21` [Example 188, 4-[7-fluoro-1-(2-hydroxyethyl)-1H-indazol-3-yl]phenol], at human ERα [1], 751 nM corresponded to half-maximal inhibition (IC50) and the Emax turned out to be 90%. Besides, on human ERα [2], the EC50 worked out at 2450 nM and the “ER/CK % E2” value came out at 31 % E2.
Take `OCCn1nc(-c2ccc(O)cc2O)c2cc(F)ccc21` [Example 192, 4-[5-fluoro-1-(2-hydroxyethyl)-1H-indazol-3-yl]benzene-1,3-diol]: on human ERα [1], half-maximal inhibition (IC50) required 371 nM and the Emax amounted to 87%. Also, at human ERα [2], the midpoint of the response, the EC50, lay at 608 nM and the “ER/CK % E2” value amounted to 51 % E2.
Taken in the same sequence, the figures for `CCCCn1nc(-c2ccc(O)cc2)c2ccc(C(F)(F)F)cc21` [Example 198, 4-[1-butyl-6-(trifluoromethyl)-1H-indazol-3-yl]phenol] were 303 nM, 100%, 1000 nM and 30 % E2.

The record behind these values is patent publication US7241791B2, “Substituted 4-(indazol-3-yl)phenols” (Wyeth, priority 2002, dated 2007).
